molecular target: T1, human progesterone receptor-A [PRA] isoform (Homo sapiens, UniProt P06401); assay: Radioligand binding with human progesterone receptor cytosol ([3H]-progesterone competition); settings: Ki (nM) PR
T1 construct: host or cells: insect SF21 cells (baculovirus)
T1 sequence (P06401 1-769 isoform P06401-2): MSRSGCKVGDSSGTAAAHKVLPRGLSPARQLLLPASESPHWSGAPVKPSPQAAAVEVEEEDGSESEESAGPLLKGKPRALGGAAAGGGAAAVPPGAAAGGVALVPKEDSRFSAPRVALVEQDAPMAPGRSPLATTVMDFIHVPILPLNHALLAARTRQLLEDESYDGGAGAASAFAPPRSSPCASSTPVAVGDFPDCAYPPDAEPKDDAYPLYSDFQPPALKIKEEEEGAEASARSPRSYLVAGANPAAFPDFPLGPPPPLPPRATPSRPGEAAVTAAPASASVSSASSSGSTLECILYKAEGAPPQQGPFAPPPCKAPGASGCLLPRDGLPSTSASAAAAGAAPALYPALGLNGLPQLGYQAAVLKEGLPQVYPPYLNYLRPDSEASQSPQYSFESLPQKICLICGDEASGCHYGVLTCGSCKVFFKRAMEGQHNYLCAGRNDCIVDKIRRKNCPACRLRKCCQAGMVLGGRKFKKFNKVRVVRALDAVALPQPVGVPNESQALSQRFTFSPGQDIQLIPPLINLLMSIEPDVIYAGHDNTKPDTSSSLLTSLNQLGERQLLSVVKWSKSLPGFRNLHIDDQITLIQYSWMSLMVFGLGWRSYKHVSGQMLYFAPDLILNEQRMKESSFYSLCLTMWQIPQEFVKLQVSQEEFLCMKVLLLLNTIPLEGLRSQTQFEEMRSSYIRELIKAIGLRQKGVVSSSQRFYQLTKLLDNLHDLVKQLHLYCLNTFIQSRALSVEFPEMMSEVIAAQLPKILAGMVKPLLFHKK

Row | Compound | Ki
1 | COC(=O)CN(C)C(=O)Oc1cccc(C2Oc3cccc(OC)c3-c3ccc4c(c32)C(C)=CC(C)(C)N4)c1 (stereo not shown) [Example 311, 2,5-Dihydro-10-methoxy-5-(3-(N-methyl-N-(carbomethoxymethyl)aminocarbonyloxy)phenyl)-2,2,4-trimethyl-1H-[1]benzopyrano[3,4-f]quinoline] | ≥ 10000 nM

same assay, conditions: PRA cytosol expressed in insect SF21 cells, [3H]Prog ~0.8 nM, 4° C. overnight; Ki by Cheng-Prusoff, KL ~4.5 nM; read-out: Ki (nM) PR

Row | Ki | Compound
2 | 1040 nM | COc1cccc2c1-c1ccc3c(c1C(=Cc1ccccc1)O2)C(C)=CC(C)(C)N3 (mixture of isomers) [Example 18, 2,5-Dihydro-10-methoxy-2,2,4-trimethyl-5-(phenylmethylene)-1H-[1]benzopyrano[3,4-f]quinoline]
3 | ≥ 10000 nM | COc1cccc2c1-c1ccc3c(c1C(C1C=CCCCC1)O2)C(C)=CC(C)(C)N3 (mixture of isomers) [Example 144]
4 | 2700 nM | COc1cccc2c1-c1ccc3c(c1C(C1C=CCC1)O2)C(C)=CC(C)(C)N3 (racemic) [Example 136]
5 | 11.6 nM | C=CCC1Oc2ccc(OC(=O)CCC(=O)N(C)C)c(Cl)c2-c2ccc3c(c21)C(C)=CC(C)(C)N3 (racemic) [Example 421, (+/−)2,5-Dihydro-9-(4-N,N-dimethylamino-4-oxo-butanoyloxy)-10-chloro-2,2,4-trimethyl-5-allyl-1H-[1]benzopyrano[3,4-f]quinoline]
6 | 8320 nM | COc1cccc2c1-c1ccc3c(c1C(c1cc(Cl)cc(Cl)c1)O2)C(C)=CC(C)(C)N3 (single isomer, unassigned; (+)) [Example 33, (+)-5-(3,5-Dichlorophenyl)-2,5-dihydro-10-methoxy-2,2,4-trimethyl-1H-[1]benzopyrano[3,4-f]quinoline]
7 | 1560 nM | COc1cccc2c1-c1ccc3c(c1C(c1cc(Cl)cc(Cl)c1)O2)C(C)=CC(C)(C)N3 (single isomer, unassigned; (-)) [Example 32, (−)-5-(3,5-Dichlorophenyl)-2,5-dihydro-10-methoxy-2,2,4-trimethyl-1H-[1]benzopyrano[3,4-f]quinoline]
8 | 59.6 nM | CCC1([C@@H]2Oc3ccc(O)c(OC)c3-c3ccc4c(c32)C(C)=CC(C)(C)N4)CC=CCC1 (single isomer, unassigned; (-)) [Example 263]
9 | 4970 nM | COc1cccc2c1-c1ccc3c(c1C(c1cc(Cl)cc(Cl)c1)O2)C(C)=CC(C)(C)N3 (stereo not shown) [Example 19, 5-(3,5-Dichlorophenyl)-2,5-dihydro-10-methoxy-2,2,4-trimethyl-1H-[1]benzopyrano[3,4-f]quinoline]
10 | 1680 nM | CCCCC1Oc2cccc(OC)c2-c2ccc3c(c21)C(C)=CC(C)(C)N3 (stereo not shown) [Example 20, 5-Butyl-2,5-dihydro-10-methoxy-2,2,4-trimethyl-1H-[1]benzopyrano[3,4-f]quinoline]
11 | ≥ 10000 nM | COc1cccc2c1-c1ccc3c(c1C(CC(C)=O)O2)C(C)=CC(C)(C)N3 (stereo not shown) [Example 45, 1-(2,5-Dihydro-10-methoxy-2,2,4-trimethyl-1H-[1]benzopyrano[3,4-f]quinolin-5-yl)-2-propanone]
12 | 2910 nM | COc1cccc2c1-c1ccc3c(c1C(Cc1ccccc1)O2)C(C)=CC(C)(C)N3 (stereo not shown) [Example 53, 2,5-Dihydro-10-methoxy-2,2,4-trimethyl-5-(phenylmethyl)-1H-[1]benzopyrano[3,4-f]quinoline]
13 | 4280 nM | COc1cccc2c1-c1ccc3c(c1C(C)O2)C(C)=CC(C)(C)N3 (stereo not shown) [Example 57, 2,5-Dihydro-10-methoxy-2,2,4,5-tetramethyl-1H-[1]benzopyrano[3,4-f]quinoline]
14 | 1670 nM | COc1cccc2c1-c1ccc3c(c1C(CCN(C)C)O2)C(C)=CC(C)(C)N3 (stereo not shown) [Example 64, 2,5-Dihydro-10-methoxy-2,2,4,N,N-pentamethyl-1H-[1]benzopyrano[3,4-f]quinoline5-ethanamine]
15 | 17300 nM | COc1cccc2c1-c1ccc3c(c1C(CCCO)O2)C(C)=CC(C)(C)N3 (stereo not shown) [Example 69, 2,5-Dihydro-10-methoxy-2,2,4-trimethyl-1H-[1]benzopyrano[3,4-f]quinoline-5-propanol]
16 | ≥ 10000 nM | C#CCOc1cccc(C2Oc3cccc(OC)c3-c3ccc4c(c32)C(C)=CC(C)(C)N4)c1 (stereo not shown) [Example 92, 2,5-Dihydro-10-methoxy-2,2,4-trimethyl-5-[3-(2-propynyloxy)phenyl]-1H-[1]benzopyrano[3,4-f]quinoline]
17 | ≥ 10000 nM | CNc1cc(C)cc(C2Oc3cccc(OC)c3-c3ccc4c(c32)C(C)=CC(C)(C)N4)c1 (stereo not shown) [Example 114, 3-(2,5-Dihydro-10-methoxy-2,2,4-trimethyl-1H-[1]benzopyrano[3,4-f]quinolin-5-methyl)-5,N-dimethylbenzenamine]

Row | Ki | Compound
18 | ≥ 10000 nM | C=CCNc1cccc(C2Oc3cccc(OC)c3-c3ccc4c(c32)C(C)=CC(C)(C)N4)c1 (stereo not shown) [Example 117, 3-(2,5-Dihydro-10-methoxy-2,2,4-trimethyl-1H-[1]benzopyrano[3,4-f]quinolin-5-yl)-N-(2-propenyl)benzenamine]
19 | 8100 nM | COc1cccc2c1-c1ccc3c(c1C(C1C=CCCCCC1)O2)C(C)=CC(C)(C)N3 (stereo not shown) [Example 143, 2,5-Dihydro-10-methoxy-5-(3-cyclooctenyl)-2,2,4-trimethyl-1H-[1]benzopyrano[3,4f]quinoline]
20 | ≥ 10000 nM | COc1cccc2c1-c1ccc3c(c1C(CC1=CCCCC1)O2)C(C)=CC(C)(C)N3 (stereo not shown) [Example 145, 2,5-Dihydro-10-methoxy-5-(1-cyclohexenylmethyl)-2,2,4-trimethyl-1H-[1]benzopyrano[3,4-f]quinoline]
21 | 9300 nM | C=C(Br)CC1Oc2cccc(OC)c2-c2ccc3c(c21)C(C)=CC(C)(C)N3 (stereo not shown) [Example 147, 2,5-Dihydro-10-methoxy-5-(2-bromo-3-propenyl)-2,2,4-trimethyl-1H-[1]benzopyrano[3,4-f]quinoline]
22 | 9900 nM | C=CC(=C)CC1Oc2cccc(OC)c2-c2ccc3c(c21)C(C)=CC(C)(C)N3 (stereo not shown) [Example 172]
23 | ≥ 10000 nM | C=C(CC1Oc2cccc(OC)c2-c2ccc3c(c21)C(C)=CC(C)(C)N3)C(=O)OC (stereo not shown) [Example 173, 2,5-Dihydro-10-methoxy-5-(2-carbomethoxy-3-propenyl)-2,2,4-trimethyl-1H-[1]benzopyrano[3,4-f]quinoline]
24 | 1700 nM | COc1cccc2c1-c1ccc3c(c1C(CC=C1CCCCCC1)O2)C(C)=CC(C)(C)N3 (stereo not shown) [Example 189, 2,5-Dihydro-10-methoxy-5-(2-cycloheptylidenylethyl)-2,2,4-trimethyl-1H-[1]benzopyrano[3,4-f]quinoline]
25 | ≥ 10000 nM | COc1cccc2c1-c1ccc3c(c1C(CCO)O2)C(C)=CC(C)(C)N3 (stereo not shown) [Example 199, 2,5-Dihydro-10-methoxy-5-(2-hydroxyethyl)-2,2,4-trimethyl-1H-[1]benzopyrano[3,4-f]quinoline]
26 | 970 nM | CCOC(=O)C1Oc2cccc(OC)c2-c2ccc3c(c21)C(C)=CC(C)(C)N3 (stereo not shown) [Example 208, 2,5-Dihydro-10-methoxy-5-(carboethoxy)-2,2,4-trimethyl-1H-[1]benzopyrano[3,4-f]quinoline]
27 | 5460 nM | COc1cccc2c1-c1ccc3c(c1C(C1CCCC1)O2)C(C)=CC(C)(C)N3 (stereo not shown) [Example 209, 2,5-Dihydro-10-methoxy-5-(cyclopentyl)-2,2,4-trimethyl-1H-[1]benzopyrano[3,4-f]quinoline]
28 | ≥ 10000 nM | COc1cccc2c1-c1ccc3c(c1C(C1CCCCC1)O2)C(C)=CC(C)(C)N3 (stereo not shown) [Example 212, 2,5-Dihydro-10-methoxy-5-(cyclohexyl)-2,2,4-trimethyl-1H-[1]benzopyrano[3,4-f]quinoline]
29 | 4.2 nM | CC1=CC(C)(C)Nc2ccc3c(c21)[C@H]([C@@H]1C=CCC1)Oc1ccc(O)c(Cl)c1-3 [Example 221, (−)2,5(S)-Dihydro-9-hydroxy-10-chloro-2,2,4-trimethyl-5-(3S-cyclopentenyl)-1H-[1]benzopyrano[3,4-f]quinoline]
30 | 1930 nM | CC1=CC(C)(C)Nc2ccc3c(c21)C(c1ccccc1)Oc1ccc2c(c1-3)OCO2 (stereo not shown) [Example 227, 9-10-Methylenedioxy-5-phenyl-2,2,4-trimethyl-1H-2,5-dihydro-[1]benzopyrano[3,4-f]quinoline]
31 | 1820 nM | COc1c(O)ccc2c1-c1ccc3c(c1C(c1ccc(F)c(F)c1)O2)C(C)=CC(C)(C)N3 (stereo not shown) [Example 254, 2,5-Dihydro-9-hydroxy-10-methoxy-2,2,4-trimethyl-5-(3,4-difluorophenyl)-1H-[1]benzopyrano[3,4-f]quinoline]
32 | 386 nM | COc1c(O)ccc2c1-c1ccc3c(c1C(c1cccs1)O2)C(C)=CC(C)(C)N3 (stereo not shown) [Example 274, 2,5-Dihydro-9-hydroxy-10-methoxy-2,2,4-trimethyl-5-(2-thienyl)-1H-[1]benzopyrano[3,4-f]quinoline]
33 | 3740 nM | C=CCOc1ccc2c(c1OC)-c1ccc3c(c1C(CC=C)O2)C(C)=CC(C)(C)N3 (stereo not shown) [Example 293, 10-Methoxy-9-(3-propenyloxy)-5-(3-propenyl)-2,2,4-trimethyl-1H-2,5-dihydro[1]benzopyrano[3,4-f]quinoline]

Row | Compound | Ki
34 | C=CCC1Oc2cccc(Cl)c2-c2ccc3c(c21)C(C)=CC(C)(C)N3 (stereo not shown) [Example 309, 10-Chloro-5-(3-propenyl)-2,2,4-trimethyl-2,5-dihydro-1H-[1]benzopyrano[3,4-f]quinoline] | 60.7 nM

— patent US6506766B1 (Abbott Laboratories, priority 1998, dated 2003)
